This is an account of results in patent publication US20050036993A1, “Immune activation by double-stranded polynucleotides” (priority 1998, published 2005).

The subject of one test is herpes simplex. The note with it: cited from earlier work.
A further test has as its system vaccinia viruses. Conditions: cited from earlier work.
Test [1] has as its system MHC Class I, TAP-1, LMP2, MHC Class II, invariant chain, HLA-DM, 90K tumor-associated immunostimulator. In words: Drug suppression of ds polynucleotide-induced MHC and antigen-presenting gene expression in FRTL-5 cells (Northern). It is filed as cell-based, rat. The note with it: for ability of dsDNA to increase MHC Class I, TAP-1, LMP2, MHC Class II, invariant chain, HLA-DM, and 90K gene expression / ability of dsRNA to increase MHC Class I, TAP-1, LMP2, MHC Class II, invariant chain, HLA-DM, and 90K gene expression: FRTL-5 cells with TSH (6H5) or without TSH (5H5), 48 hours pretreatment, compound 10 0.5 mM, MMI 5 mM; for ability of dsDNA to increase MHC Class I, TAP-1, LMP2, MHC Class II, invariant chain, HLA-DM, and 90K gene expression: 2-mercaptoimidazole 5 mM, 5 ug dsDNA; for ability of dsRNA to increase MHC Class I, TAP-1, LMP2, MHC Class II, invariant chain, HLA-DM, and 90K gene expression: 5 ug dsRNA; for dsDNA or dsRNA transfection efficiency: FRTL-5 cells, drug-treated.

The subject of test [2] is MHC Class I and Class II gene expression. The note with it: cited from earlier work.
For another test, the system named is HUVEC cells. In words: Drug suppression of ds DNA or RNA effect in endothelia (HUVEC) cells. The class given is cell-based, human. The source says:
(§1) In this experiment (FIG. 6), cells were pretreated with MMI and compound 10 for 2 days before tranfection. […] The effect was therefore not thyroid cell restricted.

The test system of the next test is mouse dendritic cells. In words: Drug suppression of ds DNA or RNA effect in mouse dendritic cells. The class given is cell-based.
Text: as §1

In a further test the test system is human fibroblasts. In words: Drug suppression of ds DNA or RNA effect in human fibroblasts. It is filed as cell-based.
Text: as §1

Another test has as its system FRTL-5 rat thyroid cells. In words: DNA staining and cell cycle analysis (FACS) of FRTL-5 cells. The class given is cell-based. The note with it: for cell cycle arrest: 5H medium 6 days then 6H medium (TSH 1×10^−10M), 5 mM methimazole or 0.5 mM compound 10; for percentage of cells in S + G2/M phase: Methimazole 5 mM, Compound 10 0.5 mM; for action of the ds nucleic acids on cell cycle progression: Table 2 experiment, 4H medium; for effect of ds nucleic acids on growth: summary statement. How it is done: Cells were diploid and between their 5th and 25th passage. Fresh medium was added every 2 or 3 days and cells were passaged every 7-10 days. In some experiments, as noted, cells were grown to near confluency in 6H medium then maintained in 5H medium (which contains no TSH) or 4H medium (with no TSH and no insulin) for 6-8 days before experiments were initiated. Treatment with 5H or 4H medium synchronizes the cells by piling them up in G0/G1 (A. Hirai, et al., J. Biol. Chem. 272: 13-16 (1997); Y. Noguchi, et al., J. Biol. Chem. 273: 3649-3653 (1998)).
DNA Staining and Cell Cycle Analysis—The procedure used was a modification of that described (P. Smerdely, et al., Endocrinology 133: 2403-2406 (1993)). It used the Cycle TEST PLUS DNA Reagent Kit (Becton Dickinson, San Jose, Calif.); and FACS analysis was performed according to the manufacturer's instructions. Briefly, 5×10^5 cells were incubated with 250 T1 of Solution A (trypsin buffer) for 10 min at room temperature, then 200 T1 of Solution B (trypsin inhibitor and ribonuclease A buffer) was added and further incubated for 10 min. Cold Solution C (propidium iodide stain solution) was added and incubated for 10 min at 4° C. in the dark. FACS analysis was performed using FACScan (Becton Dickinson, San Jose, Calif.). Each analysis was performed in triplicate on cells from 3 different plates; the histogram had at least 10,000 events and a coefficient of variation less than 5%.
In the experiment above, there was a minimal direct methimazole effect on the cell cycle because the cells were maintained in 4H medium without insulin; methimazole action requires insulin (O. Isozaki, et al., Mol. Endocrinol, 3: 1681-1692 (1989); O. Isozaki, et al., Endocrinology 128: 3113-3121 (1991)). […] In this experiment, FRTL-5 cells were grown to near confluency in 6H medium, then shifted to 5H medium without TSH for 6 days. The experiments were initiated by returning the cells to 6H medium to reinitiate the cell cycle. Cells were treated with 5 mM methimazole and transfected or not with dsDNA or dsRNA. After 36 hours they were subjected to cell cycle analysis. […] In this experiment, FRTL-5 cells were grown to near confluency in 6H medium, then shifted to 5H medium without TSH for 6 days. The experiments were initiated by returning the cells to 6H medium to reinitiate the cell cycle. Cells were treated with 0.5 mM 5-phenylmethimazole (compound 10) and transfected or not with dsDNA or dsRNA. After 36 hours they were subjected to cell cycle analysis.

In a further test the test system is female NOD mice. The note with it: cited from earlier work.
A further test deals with female (NZBxNZW)F1 mice. Conditions: cited from earlier work.
Setting [3] is: Control (no ds nucleic acid), FRTL-5 cells 6 days in 4 H medium without insulin or TSH.
Where [4] appears, read: transfected with dsDNA, FRTL-5 cells 6 days in 4 H medium.
The mark [5] stands for this setting: transfected with dsRNA, FRTL-5 cells 6 days in 4 H medium.

As to “1,3-dimethyl-4-phenylimidazoline-2-thione”, the antiviral properties entry in the test with herpes simplex and in the test with vaccinia viruses was “antiviral properties” throughout.

Consider `Sc1ncc[nH]1` [2-mercaptoimidazole, reference compound], for which, in test [1], the “ability of dsDNA to increase MHC Class I, TAP-1, LMP2, MHC Class II, invariant chain, HLA-DM, and 90K gene expression” value (from here on “ability of dsDNA to increase MHC Class I”) is “no effect”. For the same compound, in test [2], the “activity as antimmune drug” value was “inactive”.

For `Cn1c(-c2ccccc2)c[nH]c1=S` [Compound 10, 5-phenylmethimazole], the results for the “ability of dsDNA to increase MHC Class I” value in [1] and in test [1] (listed as compound 10) were “significantly decreases” and “better than 5 mM MMI”, respectively. For the same compound, the “ability of dsRNA to increase MHC Class I, TAP-1, LMP2, MHC Class II, invariant chain, HLA-DM, and 90K gene expression” value in [1] is recorded as “decreases”; in test [1] (listed as compound 10) it was “better than MMI”. For the same compound, in [1], the “dsDNA or dsRNA transfection efficiency” value is given as “does not affect”. In addition, in [1] (no pretreatment), the “expression of MHC and antigen-presenting genes, coincident transfection and treatment” value is listed as “resulted in suppression”. Moreover, the “effect on cells transfected with double strand DNA or RNA” value with HUVEC cells, with mouse dendritic cells and in the test on human fibroblasts was “similarly effective” in each case. Also, the cell cycle arrest result in the test with FRTL-5 rat thyroid cells (36 hours) is recorded as “no such effect”. The “effect on ds nucleic acid effects on cell cycle” value with FRTL-5 rat thyroid cells (5H then 6H medium, 0.5 mM compound 10, 36 hours) is “no effect”. Further, the “percentage of cells in S + G2/M phase” value in the test with FRTL-5 rat thyroid cells (setting [3]) is given as 10.5%; in the test with FRTL-5 rat thyroid cells (setting [4]) it was 11.0%; in the test with FRTL-5 rat thyroid cells (setting [5]) it was 4.5%. The “action of the ds nucleic acids on cell cycle progression” value in the test with FRTL-5 rat thyroid cells is recorded as “inhibit”. In the test on FRTL-5 rat thyroid cells, the “effect of ds nucleic acids on growth” value is “does not”. Also, the “development of Diabetes” value with female NOD mice was “suppress the development”. Further, the “development of systemic lupus erythematosus (SLE)” value in the test with female (NZBxNZW)F1 mice was “suppress the development”. For the same compound, the “activity as antimmune drug” value in test [2] was “most active”. In addition, the “potency relative to MMI” value in test [2] is 10- to 100 fold.

Turning to `Cn1cc[nH]c1=S` [Methimazole, methimazole, reference compound], in test [1], the “ability of dsDNA to increase MHC Class I” value is “INHIBIT”; the “dsDNA or dsRNA transfection efficiency” value is “does not affect”. Moreover, the cell cycle arrest result in the test on FRTL-5 rat thyroid cells (36 hours) is “arrest in the G2/M1 phase”. In the test on FRTL-5 rat thyroid cells (setting [3]), the “percentage of cells in S + G2/M phase” value is 6.3%. Also, in the test with FRTL-5 rat thyroid cells, the “action of the ds nucleic acids on cell cycle progression” value is “inhibit” and the “effect of ds nucleic acids on growth” value is “counteracts”. In the test on FRTL-5 rat thyroid cells (setting [4]), the “percentage of cells in S + G2/M phase” value stood at 11.4%. Further, the “percentage of cells in S + G2/M phase” value in the test with FRTL-5 rat thyroid cells (setting [5]) is 7.4%.
